The values that follow come from patent US20230113037A1 (Bayer Aktiengesellschaft, priority 2019, published 2023).

For test [1], the target named is T1, AHR (Homo sapiens, UniProt P35869).
T1 construct: U87 MG glioblastoma cells (ATCC #HTB-14) endogenously expressing AHR; endogenous in cells; host or cells: U87 MG glioblastoma cells (ATCC #HTB-14)
T1 sequence (P35869 11-848): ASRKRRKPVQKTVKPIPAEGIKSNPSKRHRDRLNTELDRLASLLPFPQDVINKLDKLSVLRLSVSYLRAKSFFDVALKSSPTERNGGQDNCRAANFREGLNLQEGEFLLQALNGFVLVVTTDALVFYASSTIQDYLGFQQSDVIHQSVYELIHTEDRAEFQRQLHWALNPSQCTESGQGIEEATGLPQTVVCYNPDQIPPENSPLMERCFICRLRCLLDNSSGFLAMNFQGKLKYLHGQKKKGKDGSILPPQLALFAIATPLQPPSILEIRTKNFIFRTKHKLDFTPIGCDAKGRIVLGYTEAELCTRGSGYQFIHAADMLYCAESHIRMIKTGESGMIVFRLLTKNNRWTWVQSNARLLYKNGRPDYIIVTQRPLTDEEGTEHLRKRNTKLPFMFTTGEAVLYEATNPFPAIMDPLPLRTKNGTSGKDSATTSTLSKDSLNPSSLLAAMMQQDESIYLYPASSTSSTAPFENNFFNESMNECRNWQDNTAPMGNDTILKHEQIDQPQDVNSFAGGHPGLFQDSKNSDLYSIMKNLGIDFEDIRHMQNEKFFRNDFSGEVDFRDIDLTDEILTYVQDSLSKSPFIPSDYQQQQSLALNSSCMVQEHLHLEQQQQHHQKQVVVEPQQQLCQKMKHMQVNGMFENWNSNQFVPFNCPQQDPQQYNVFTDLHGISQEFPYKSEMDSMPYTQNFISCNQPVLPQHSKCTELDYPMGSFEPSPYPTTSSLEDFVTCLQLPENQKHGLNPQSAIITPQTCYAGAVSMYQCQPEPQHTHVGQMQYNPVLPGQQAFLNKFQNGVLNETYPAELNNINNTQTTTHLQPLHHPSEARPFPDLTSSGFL
As to the kind of experiment: In vitro assay 1: antagonism in human cell line (AHR transactivation, firefly luciferase reporter, kynurenic acid prestimulated). The class given is cell-based. Particulars: AHR Antagonism Human IC50 [M]. An outline of the steps: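 Antagonism is measured against kynurenic acid prestimulation in U87 MG glioblastoma cells carrying stable DRE-luciferase and Renilla reporters. Positive inhibition control: 150 μM kynurenic acid with 5 μM staurosporine. Values are normalized to controls; repeats are averaged or given as medians.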

In test [2] the target is T2, AHR (Mus musculus, UniProt P30561).
T2 sequence (P30561 1-848 P471L/N533S/M589L): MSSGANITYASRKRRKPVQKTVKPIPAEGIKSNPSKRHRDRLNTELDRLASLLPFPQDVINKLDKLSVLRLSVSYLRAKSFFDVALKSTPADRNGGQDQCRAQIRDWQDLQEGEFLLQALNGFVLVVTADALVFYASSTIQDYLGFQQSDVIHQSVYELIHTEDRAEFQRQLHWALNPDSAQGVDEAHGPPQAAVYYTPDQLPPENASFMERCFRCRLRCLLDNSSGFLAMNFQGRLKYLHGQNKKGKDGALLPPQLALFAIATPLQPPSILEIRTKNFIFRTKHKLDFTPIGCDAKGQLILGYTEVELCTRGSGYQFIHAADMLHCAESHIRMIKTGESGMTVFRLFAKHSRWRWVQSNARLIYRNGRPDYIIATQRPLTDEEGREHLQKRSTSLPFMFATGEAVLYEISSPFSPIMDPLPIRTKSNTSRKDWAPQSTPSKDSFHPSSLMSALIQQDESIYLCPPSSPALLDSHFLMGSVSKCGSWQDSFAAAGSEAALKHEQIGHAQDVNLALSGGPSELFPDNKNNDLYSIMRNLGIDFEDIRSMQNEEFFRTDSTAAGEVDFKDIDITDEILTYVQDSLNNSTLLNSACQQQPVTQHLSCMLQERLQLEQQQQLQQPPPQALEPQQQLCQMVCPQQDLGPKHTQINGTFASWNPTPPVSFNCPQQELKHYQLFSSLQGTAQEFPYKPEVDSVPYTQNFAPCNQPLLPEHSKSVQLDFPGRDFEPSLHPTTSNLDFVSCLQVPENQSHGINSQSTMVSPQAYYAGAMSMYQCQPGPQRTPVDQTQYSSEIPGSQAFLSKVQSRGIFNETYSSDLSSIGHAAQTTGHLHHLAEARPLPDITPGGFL
The test is described as follows: In vitro assay 3: antagonism in mouse cell line (AHR transactivation, firefly luciferase reporter, kynurenic acid prestimulated). Type of test: cell-based. The essentials: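 Kynurenic acid-prestimulated mouse reporter cells; stable AHR-inducible firefly luc construct with DRE sites in promoter. No-agonist wells = positive inhibition ctrl. Luminescence normalized to pos/neg ctrls; n>1 reported as mean or median.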

Setting [3] is: mouse Hepa 1c1c7 cells, 200 μM kynurenic acid, 20 hours, read-out: AHR Antagonism Mouse IC50.
Setting [4] is: read-out: AHR Antagonism Mouse IC50, mouse Hepa 1c1c7 cells, 200 μM kynurenic acid, 20 hours.

By IC50 is commonly meant the midpoint of a concentration-inhibition curve.

Read-outs that look alike come from different tables or passages of the source.

As for `COc1cccc2c1nc(N[C@@H]1CCCCNC1=O)n1nc(-c3cn(C)nn3)nc21` [Example 756, (3R)-3-{[7-methoxy-2-(1-methyl-1H-1,2,3-triazol-4-yl)[1,2,4]triazolo[1,5-c]quinazolin-5-yl]amino}azepan-2-one], the IC50 in test [1] amounted to 4.49e-06 M; in test [2] (setting [3]) it was 11700 nM.
Taken in the same sequence, the figures for `COc1cccc2c1nc(N[C@@H]1CCCCNC1=O)n1nc(-c3cnn(C4CC4)c3)nc21` [Example 757, (3R)-3-{[2-(1-cyclopropyl-1H-pyrazol-4-yl)-7-methoxy[1,2,4]triazolo[1,5-c]quinazolin-5-yl]amino}azepan-2-one] were 5.4e-08 M and 109 nM.
Taken in the same sequence, the figures for `COc1cccc2c1nc(N[C@@H]1CCCCNC1=O)n1nc(-c3cnn(C4CCC4)c3)nc21` [Example 758, (3R)-3-{[2-(1-cyclobutyl-1H-pyrazol-4-yl)-7-methoxy[1,2,4]triazolo[1,5-c]quinazolin-5-yl]amino}azepan-2-one] were 1.35e-08 M and 19.6 nM.
As to `CC(C)n1cc(-c2nc3c4cccc(OC(F)(F)F)c4nc(N[C@@H]4CCCCNC4=O)n3n2)cn1` [Example 759, (3R)-3-({2-[1-(propan-2-yl)-1H-pyrazol-4-yl]-7-(trifluoromethoxy)[1,2,4]triazolo[1,5-c]quinazolin-5-yl}amino)azepan-2-one], the IC50 in test [1] turned out to be 7.68e-09 M; in test [2] (setting [3]), 25 nM.
With `CC(C)n1cc(-c2nc3c4cccc(C#N)c4nc(N[C@@H]4CCCCNC4=O)n3n2)cn1` [Example 760, 5-{[(3R)-2-oxoazepan-3-yl]amino}-2-[1-(propan-2-yl)-1H-pyrazol-4-yl][1,2,4]triazolo[1,5-c]quinazoline-7-carbonitrile], the IC50 in test [1] is 3.6e-09 M; in test [2] (setting [3]), 10 nM.
The like results for `N#Cc1cccc2c1nc(N[C@@H]1CCCCNC1=O)n1nc(-c3cnn(C4CC4)c3)nc21` [Example 761, 2-(1-cyclopropyl-1H-pyrazol-4-yl)-5-{[(3R)-2-oxoazepan-3-yl]amino}[1,2,4]triazolo[1,5-c]quinazoline-7-carbonitrile] were, in that order, 3.11e-09 M and 9.93 nM.
With `N#Cc1cccc2c1nc(N[C@@H]1CCCCNC1=O)n1nc(-c3cnn(C4CCC4)c3)nc21` [Example 762, 2-(1-cyclobutyl-1H-pyrazol-4-yl)-5-{[(3R)-2-oxoazepan-3-yl]amino}[1,2,4]triazolo[1,5-c]quinazoline-7-carbonitrile], the half-inhibitory concentration (IC50) in test [1] is 2.44e-09 M; in test [2] (setting [4]), 7.01 nM.
Consider `CCn1cc(-c2nc3c4cccc(C#N)c4nc(N[C@@H]4CCCCNC4=O)n3n2)c(C)n1` [Example 763, 2-(1-ethyl-3-methyl-1H-pyrazol-4-yl)-5-{[(3R)-2-oxoazepan-3-yl]amino}[1,2,4]triazolo[1,5-c]quinazoline-7-carbonitrile], for which the IC50 in test [1] was determined as 1.41e-09 M; in test [2] (setting [3]), 3.96 nM.
Taken in the same sequence, the figures for `N#Cc1cccc2c1nc(N[C@@H]1CCCCNC1=O)n1nc(-c3cnn(C(F)F)c3)nc21` [Example 764, 2-[1-(difluoromethyl)-1H-pyrazol-4-yl]-5-{[(3R)-2-oxoazepan-3-yl]amino}[1,2,4]triazolo[1,5-c]quinazoline-7-carbonitrile] were 1.86e-09 M and 1.73 nM.
`N#Cc1cccc2c1nc(N[C@@H]1CCCCNC1=O)n1nc(-c3cn[nH]c3)nc21` [Example 765, 5-{[(3R)-2-oxoazepan-3-yl]amino}-2-(1H-pyrazol-4-yl)[1,2,4]triazolo[1,5-c]quinazoline-7-carbonitrile]: the 50% inhibitory concentration (IC50) in test [1] is 7.79e-07 M; in test [2] (setting [4]) it was 5850 nM.
For the compound `COc1ccc(-c2nc3c4cccc(SC)c4nc(N[C@@H]4CCCCNC4=O)n3n2)cc1` [Example 766, (3R)-3-{[2-(4-methoxyphenyl)-7-(methylsulfanyl)[1,2,4]triazolo[1,5-c]quinazolin-5-yl]amino}azepan-2-one], the 50% inhibitory concentration (IC50) in test [1] was 1.64e-08 M; in test [2] (setting [3]), 47 nM.
Regarding `COc1ccc(-c2nc3c4cccc(SC(C)C)c4nc(N[C@@H]4CCCCNC4=O)n3n2)cc1` [Example 767, (3R)-3-({2-(4-methoxyphenyl)-7-[(propan-2-yl)sulfanyl][1,2,4]triazolo[1,5-c]quinazolin-5-yl}amino)azepan-2-one], the IC50 in test [1] was determined as 2.69e-08 M; in test [2] (setting [3]) it was 47.6 nM.
As for `CC(C)Sc1cccc2c1nc(N[C@@H]1CCCCNC1=O)n1nc(-c3cnn(C)c3)nc21` [Example 768], the IC50 was determined as 1.32e-07 M in test [1] and 1220 nM in test [2] (setting [4]).
Consider `CCSc1cccc2c1nc(N[C@@H]1CCCCNC1=O)n1nc(-c3cnn(C)c3)nc21` [Example 769, (3R)-3-{[7-(ethylsulfanyl)-2-(1-methyl-1H-pyrazol-4-yl)[1,2,4]triazolo[1,5-c]quinazolin-5-yl]amino}azepan-2-one], for which the half-maximal inhibitory concentration (IC50) in test [1] came out at 2.1e-08 M; in test [2] (setting [3]) it was 151 nM.
With `CCSc1cccc2c1nc(N[C@@H]1CCCCNC1=O)n1nc(-c3ccc(OC)cc3)nc21` [Example 770, (3R)-3-{[7-(ethylsulfanyl)-2-(4-methoxyphenyl)[1,2,4]triazolo[1,5-c]quinazolin-5-yl]amino}azepan-2-one], the IC50 in test [1] was found to be 4.04e-09 M; in test [2] (setting [3]), 5.09 nM.
Taken in the same sequence, the figures for `CSc1cccc2c1nc(N[C@@H]1CCCCNC1=O)n1nc(-c3cnn(C(C)C)c3)nc21` [Example 771, (3R)-3-({7-(methylsulfanyl)-2-[1-(propan-2-yl)-1H-pyrazol-4-yl][1,2,4]triazolo[1,5-c]quinazolin-5-yl}amino)azepan-2-one] were 1.02e-08 M and 104 nM.
The like results for `CCn1cc(-c2nc3c4cccc(SC)c4nc(N[C@@H]4CCCCNC4=O)n3n2)c(C)n1` [Example 772, (3R)-3-{[2-(1-ethyl-3-methyl-1H-pyrazol-4-yl)-7-(methylsulfanyl)[1,2,4]triazolo[1,5-c]quinazolin-5-yl]amino}azepan-2-one] were, in that order, 3.61e-09 M and 51.3 nM.
Taken in the same sequence, the figures for `COc1ccc(-c2nc3c4cccc(Br)c4nc(N[C@H](C)C(=O)N4CCOCC4)n3n2)cc1` [Example 773, (2R)-2-{[7-bromo-2-(4-methoxyphenyl)[1,2,4]triazolo[1,5-c]quinazolin-5-yl]amino}-1-(morpholin-4-yl)propan-1-one] were 8.57e-10 M and 0.995 nM.
As for `C[C@@H](Nc1nc2ccccc2c2nc(-c3ccc(S(C)(=O)=O)cc3)nn12)C(=O)NCCN(C)C` [Example 774, N-[2-(dimethylamino)ethyl]-N^2-{2-[4-(methanesulfonyl)phenyl][1,2,4]triazolo[1,5-c]quinazolin-5-yl}-D-alaninamide], the figures for the 50% inhibitory concentration (IC50) in test [1] and in test [2] (setting [3]) were 2.26e-06 M and 555 nM, respectively.
Taken in the same sequence, the figures for `C[C@@H](Nc1nc2ccccc2c2nc(-c3cc(Cl)ccc3OC(F)(F)F)nn12)C(=O)NCCN(C)C` [Example 775, N^2-{2-[5-chloro-2-(trifluoromethoxy)phenyl][1,2,4]triazolo[1,5-c]quinazolin-5-yl}-N-[2-(dimethylamino)ethyl]-D-alaninamide] were 3.13e-06 M and 743 nM.
